Reference: PubChem BioAssay (NCI)
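1) Cells in 96-well plates. 2) Compound, 48 h, 5 concentrations. 3) Linear interpolation between surrounding doses. 4) Unreached endpoint = highest concentration. Abbreviation: GI50, concentration required for 50% inhibition of growth. The concentration for full growth arrest is given as TGI.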

Columns and labels:
Test in all cases: NCI tumour cell line growth inhibition, 48 h
SK-MEL-5 melanoma = tested on: SK-MEL-5 melanoma
HT29 colon = tested on: HT29 colon
SNB-75 CNS = tested on: SNB-75 CNS
SN12C renal = tested on: SN12C renal
MALME-3M melanoma = tested on: MALME-3M melanoma
IGROV1 ovarian = tested on: IGROV1 ovarian
SW-620 colon = tested on: SW-620 colon
SF-539 CNS = tested on: SF-539 CNS
HOP-62 NSCLC = tested on: HOP-62 NSCLC
OVCAR-4 ovarian = tested on: OVCAR-4 ovarian

SMILES | TGI (SK-MEL-5 melanoma) [µM] | TGI (HT29 colon) [µM] | TGI (SNB-75 CNS) [µM] | TGI (SN12C renal) [µM] | TGI (MALME-3M melanoma) [µM] | TGI (IGROV1 ovarian) [µM] | TGI (SW-620 colon) [µM] | TGI (SF-539 CNS) [µM] | TGI (HOP-62 NSCLC) [µM] | TGI (OVCAR-4 ovarian) [µM] | GI50 (SK-MEL-5 melanoma) [µM] | GI50 (HT29 colon) [µM] | GI50 (SNB-75 CNS) [µM] | GI50 (SN12C renal) [µM] | GI50 (MALME-3M melanoma) [µM] | GI50 (IGROV1 ovarian) [µM] | GI50 (SW-620 colon) [µM] | GI50 (SF-539 CNS) [µM] | GI50 (HOP-62 NSCLC) [µM] | GI50 (OVCAR-4 ovarian) [µM]
O=C1CSc2cc([N+](=O)[O-])ccc2N1 | > 100 | > 100 | > 100 | > 100 | > 100 | > 100 | > 100 | > 100 | > 100 | > 100 |  |  |  |  |  |  |  |  |  | 
C=CC(COC(c1ccccc1)(c1ccccc1)c1ccccc1)N(CC)CC (configuration not stated) | 3.98 | 7.05 | 22.5 | 24.5 | 4.3 | 20.1 | 7.95 | 18.6 | 15.6 | 17.5 | 1.95 | 1.93 | 10.3 | 7.97 | 1.89 | 5.09 | 2.32 | 4.88 | 3.93 | 4.74
COc1cc(-c2csc(NC(=O)Nc3cc(Cl)cc(Cl)c3)n2)cc(OC)c1OC | 11.2 | 4.41 | 2.88 | 3.28 | 3.25 | 4.04 | 4.02 | 4.7 |  | 3.36 | 3.15 | 2.02 | 1.49 | 1.78 | 1.75 | 2.03 | 1.97 | 1.99 |  | 1.78
CCN(CC)CC(=N)N(CC)c1ccccc1 | > 100 |  | > 100 | > 100 | > 100 | > 100 | > 100 | > 100 | > 100 | > 100 |  |  |  |  |  |  |  |  |  | 
O=C1OCC2=C1C(c1ccccc1)c1cc3c(cc1N2CCO)OCCO3 (configuration not stated) | 7.18 | 1.61 | 0.427 | > 50 | > 50 | 1.41 | > 50 |  | > 50 | > 50 | 0.181 | 0.168 | 0.121 | 4.46 | > 50 | 0.161 | 0.224 | 0.298 | 0.763 | 0.587
Oc1ccc(N=Nc2ccccn2)c(O)c1 | 24.2 | > 100 |  | > 100 | > 100 | > 100 | > 100 | 61.8 | > 100 | 6.41 | 2.1 | 0.434 |  | 1.91 | 4.86 | 0.595 | 0.757 | 0.999 | 0.832 | 0.267
O=C(/C=C\c1ccccc1)N1CCc2ccccc2C1 | 39.9 | > 100 | > 100 |  |  | > 100 | > 100 | > 100 | > 100 | > 100 |  |  |  |  |  |  |  |  |  | 
O=C(O)/C(=C\c1ccncc1)c1cccc2ccccc12 | > 100 | > 100 | > 100 | > 100 | > 100 | > 100 | > 100 | > 100 | > 100 | > 100 |  |  |  |  |  |  |  |  |  | 
